Tests used:
barnyardgrass (Ec) [1] = assay: Test Example 2: herbicidal effects by upland field soil treatment; format: in vivo; conditions: 100 g of the active ingredient per 10 ares;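 also: grade of growth control; 5 = at least 90%; 4 = 70 to 90%; 3 = 50 to 70%; 2 = 30 to 50%; 1 = 10 to 30%; 0 = under 10%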
Source text: (§1) (Test on Herbicidal Effects by Upland Field Soil Treatment)

Digitaria ciliaris (Di) = assay: as above; format: in vivo; conditions: 100 g of the active ingredient per 10 ares;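 also: grade of growth control; 5 = at least 90%; 4 = 70 to 90%; 3 = 50 to 70%; 2 = 30 to 50%; 1 = 10 to 30%; 0 = under 10%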
Source text: as §1

rice flatsedge (Ci) [2] = assay: as above; format: in vivo; conditions: 100 g of the active ingredient per 10 ares
Source text: as §1

slender amaranth (Am) [3] = assay: as above; format: in vivo; conditions: 100 g of the active ingredient per 10 ares
Source text: as §1

[4] = system: common lambsquarters (Ch); assay: as above; format: in vivo; conditions: 100 g of the active ingredient per 10 ares
Source text: as §1

pale smartweed (Po) [5] = assay: as above; format: in vivo; conditions: 100 g of the active ingredient per 10 ares
Source text: as §1

China jute (Ab) [6] = assay: Test Example 9: crop plant selectivity by upland field foliage treatment (wheat), herbicidal effects; format: in vivo; set-up: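 grade of growth control; 5 = at least 90%; 4 = 70 to 90%; 3 = 50 to 70%; 2 = 30 to 50%; 1 = 10 to 30%; 0 = under 10%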; conditions: dose 1.6 g ai/10a, 14th day after treatment
Protocol: (§2) (Test on Crop Plant Selectivity by Upland Field Foliage Treatment)
(§3) In a plastic pot (surface area: 600 cm^2) filled with sand, wheat (Tr), pale smartweed (Po), slender amaranth (Am), common lambsquarters (Ch) and China jute (Ab) were sown and cultured in a green house for 2 weeks. […] The plants were then cultured in a green house, and the evaluation of the herbicidal effects and phytotoxicity was conducted on the 14th day after the treatment in accordance with the standards as identified in Table 47.

slender amaranth (Am) [7] = assay: as above; format: in vivo; set-up: scale not given here; conditions: dose 1.6 g ai/10a, 14th day after treatment
Protocol: as §2, §3

[8] = system: common lambsquarters (Ch); assay: as above; format: in vivo; set-up: scale not given here; conditions: dose 1.6 g ai/10a, 14th day after treatment
Protocol: as §2, §3

pale smartweed (Po) [9] = assay: as above; format: in vivo; set-up: scale not given here; conditions: dose 1.6 g ai/10a, 14th day after treatment
Protocol: as §2, §3

barnyardgrass (Ec) [10] = assay: Test Example 3: herbicidal effects by upland field foliage treatment; format: in vivo; set-up: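 grade of growth control; 5 = at least 90%; 4 = 70 to 90%; 3 = 50 to 70%; 2 = 30 to 50%; 1 = 10 to 30%; 0 = under 10%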
Procedure, shortened: (§4)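 Weeds were sown in sand-filled pots (surface area: 120 cm^2), covered with soil and grown in a greenhouse for 2 weeks before foliar treatment. Plants then stayed in the greenhouse, and herbicidal effect was scored against graded standards on the 14th day after treatment.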

rice flatsedge (Ci) [11] = assay: as above; format: in vivo; set-up: scale not given here
Procedure, shortened: as §4

slender amaranth (Am) [12] = assay: as above; format: in vivo; set-up: scale not given here
Procedure, shortened: as §4

Diaitaria ciliaris (Di) = assay: as above; format: in vivo; set-up: scale not given here
Procedure, shortened: as §4

[13] = system: common lambsquarters (Ch); assay: as above; format: in vivo; set-up: scale not given here
Procedure, shortened: as §4

pale smartweed (Po) [14] = assay: as above; format: in vivo; set-up: scale not given here
Procedure, shortened: as §4

bulrush (Sc) = assay: Test Example 1: herbicidal effects by paddy field soil treatment; format: in vivo; conditions: 100 g of the active ingredient per 10 ares, 21st day after the application, index 0-5 of Table 47;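 also: grade of growth control; 5 = at least 90%; 4 = 70 to 90%; 3 = 50 to 70%; 2 = 30 to 50%; 1 = 10 to 30%; 0 = under 10%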
Procedure, shortened: (§5)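 Herbicidal effect was scored against a graded standard 21 days after treatment. Seeds were sown in puddled, leveled paddy soil flooded to 3 cm depth, and the active ingredient was applied at 100 g per 10 ares before greenhouse culture.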

barnyardgrass (Ec) [15] = assay: as above; format: in vivo; conditions: 100 g of the active ingredient per 10 ares, 21st day after the application, index 0-5 of Table 47
Procedure, shortened: as §5

monochoria (Mo) = assay: as above; format: in vivo; conditions: 100 g of the active ingredient per 10 ares, 21st day after the application, index 0-5 of Table 47;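 also: grade of growth control; 5 = at least 90%; 4 = 70 to 90%; 3 = 50 to 70%; 2 = 30 to 50%; 1 = 10 to 30%; 0 = under 10%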
Procedure, shortened: as §5

wheat (Tr) [16] = assay: Test Example 9: crop plant selectivity by upland field foliage treatment (wheat), phytotoxicity; conditions: dose 1.6 g ai/10a, 14th day after treatment
Protocol: as §2, §3

wheat (Tr) [17] = assay: Test Example 5: crop plant selectivity by upland field soil treatment (wheat), phytotoxicity; format: in vivo; set-up: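 grade of crop injury; 5 = at least 90%; 4 = 70 to 90%; 3 = 50 to 70%; 2 = 30 to 50%; 1 = 10 to 30%; 0 = under 10%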; conditions: dose 6.3 g ai/10a, 21st day after application
Protocol: (§6) (Test on Crop Plant Selectivity by Upland Field Soil Treatment)
(§7) In a plastic pot (surface area: 600 cm^2) filled with sand, wheat (Tr), Diaitaria ciliaris (Di), green foxtail (Se), pale smartweed (Po), slender amaranth (Am), common lambsquarters (Ch) and China jute (Ab) were sown and covered with soil. […] The plants were then cultured in a green house, and the evaluation of the herbicidal effects and phytotoxicity was conducted on the 21st day after the application in accordance with the standards as identified in Table 47. Symbol—represents “not tested”.

green foxtail (Se) = assay: Test Example 5: crop plant selectivity by upland field soil treatment (wheat), herbicidal effects; format: in vivo; set-up: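 grade of growth control; 5 = at least 90%; 4 = 70 to 90%; 3 = 50 to 70%; 2 = 30 to 50%; 1 = 10 to 30%; 0 = under 10%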; conditions: dose 6.3 g ai/10a, 21st day after application
Protocol: as §6, §7

China jute (Ab) [18] = assay: as above; format: in vivo; set-up: scale not given here; conditions: dose 6.3 g ai/10a, 21st day after application
Protocol: as §6, §7

slender amaranth (Am) [19] = assay: as above; format: in vivo; set-up: scale not given here; conditions: dose 6.3 g ai/10a, 21st day after application
Protocol: as §6, §7

[20] = system: common lambsquarters (Ch); assay: as above; format: in vivo; set-up: scale not given here; conditions: dose 6.3 g ai/10a, 21st day after application
Protocol: as §6, §7

pale smartweed (Po) [21] = assay: as above; format: in vivo; set-up: scale not given here; conditions: dose 6.3 g ai/10a, 21st day after application
Protocol: as §6, §7

[22] = 21st day after the application, index 0-5 of Table 47
[23] = 100 g of the active ingredient per 10 ares, evaluated on the 14th day after treatment
[24] = evaluated on the 21st day after application
[25] = 100 g active ingredient per 10 ares, evaluated 14th day after treatment

Compound | Herbicidal effects Ab (China jute (Ab) [6]) | Herbicidal effects Am (slender amaranth (Am) [7]) | Herbicidal effects Ch [8] | Herbicidal effects Po (pale smartweed (Po) [9]) | Herbicidal effects Ec (barnyardgrass (Ec) [10]; [23]) | Herbicidal effects Ci (rice flatsedge (Ci) [11]; [23]) | Herbicidal effects Am (slender amaranth (Am) [12]; [23]) | Herbicidal effects Di (Diaitaria ciliaris (Di); [23]) | Herbicidal effects Ch [13, 23] | Herbicidal effects Po (pale smartweed (Po) [14]; [23]) | Herbicidal effects Sc (bulrush (Sc)) | Herbicidal effects Ec (barnyardgrass (Ec) [15]) | Herbicidal effects Mo (monochoria (Mo)) | Phytotoxicity Tr (wheat (Tr) [16]) | Herbicidal effects Ec (barnyardgrass (Ec) [1]; [24]) | Herbicidal effects Di (Digitaria ciliaris (Di); [24]) | Herbicidal effects Ci (rice flatsedge (Ci) [2]; [24]) | Herbicidal effects Am (slender amaranth (Am) [3]; [24]) | Herbicidal effects Ch [4, 24] | Herbicidal effects Po (pale smartweed (Po) [5]; [24]) | further results
CCCCCOC(=O)COc1cc(-c2ccc(C(F)(F)F)n(C)c2=O)c(F)cc1Cl [1-20] | 5 | 5 | 5 | 5 | 5 | 5 | 5 | 5 | 5 | 5 | 5 | 5 | 5 | 2 | – | – | – | – | – | – | Herbicidal effects Ec (barnyardgrass (Ec) [1]; [22]): 5; Herbicidal effects Di (Digitaria ciliaris (Di); [22]): 5; Herbicidal effects Ci (rice flatsedge (Ci) [2]; [22]): 5; Herbicidal effects Am (slender amaranth (Am) [3]; [22]): 5; Herbicidal effects Ch [4, 22]: 5; Herbicidal effects Po (pale smartweed (Po) [5]; [22]): 5
CCCC(Sc1cc(-c2ccc(C(F)(F)F)n(C)c2=O)c(F)cc1Cl)C(=O)OCC (stereo not shown) [1-48] | 5 | 5 | 5 | 5 | 5 | 5 | 5 | 5 | 5 | 5 | 5 | 5 | 5 | 2 | – | – | – | – | – | – | –
CCCOC(=O)c1cc(-c2ccc(C(F)(F)F)n(C)c2=O)c(F)cc1Cl [1-158] | 5 | 5 | 5 | 5 | 5 | 5 | 5 | 5 | 5 | 5 | 5 | 5 | 5 | 2 | – | – | – | – | – | – | Herbicidal effects Ec (barnyardgrass (Ec) [1]; [22]): 5; Herbicidal effects Di (Digitaria ciliaris (Di); [22]): 5; Herbicidal effects Ci (rice flatsedge (Ci) [2]; [22]): 5; Herbicidal effects Am (slender amaranth (Am) [3]; [22]): 5; Herbicidal effects Ch [4, 22]: 5; Herbicidal effects Po (pale smartweed (Po) [5]; [22]): 5
C#CCN1C(=O)COc2cc(F)c(-c3cc(C)c(C(F)(F)F)n(C)c3=O)cc21 [Compound 2-2] | – | – | – | – | – | – | – | – | – | – | 5 | 5 | 5 | – | 5 | 5 | 5 | 5 | 5 | 5 | Herbicidal effects Ec (barnyardgrass (Ec) [10]; [25]): 5; Herbicidal effects Ci (rice flatsedge (Ci) [11]; [25]): 5; Herbicidal effects Am (slender amaranth (Am) [12]; [25]): 5; Herbicidal effects Di (Diaitaria ciliaris (Di); [25]): 5; Herbicidal effects Ch [13, 25]: 5; Herbicidal effects Po (pale smartweed (Po) [14]; [25]): 5; Phytotoxicity Tr (wheat (Tr) [17]): 2; Herbicidal effects Se (green foxtail (Se)): 5; Herbicidal effects Ab (China jute (Ab) [18]): 5; Herbicidal effects Am (slender amaranth (Am) [19]): 5; Herbicidal effects Ch [20]: 5; Herbicidal effects Po (pale smartweed (Po) [21]): 5
CCn1c(=O)sc2cc(F)c(-c3ccc(C(F)(F)F)n(C)c3=O)cc21 [Compound 3-7] | 5 | 5 | 5 | 5 | – | – | – | – | – | – | 5 | 5 | 5 | 2 | 5 | 5 | 5 | 5 | 5 | 5 | Herbicidal effects Ec (barnyardgrass (Ec) [10]; [25]): 5; Herbicidal effects Ci (rice flatsedge (Ci) [11]; [25]): 5; Herbicidal effects Am (slender amaranth (Am) [12]; [25]): 5; Herbicidal effects Di (Diaitaria ciliaris (Di); [25]): 5; Herbicidal effects Ch [13, 25]: 5; Herbicidal effects Po (pale smartweed (Po) [14]; [25]): 5
CC(Br)c1cc2c(-c3ccc(C(F)(F)F)n(C)c3=O)c(F)cc(Cl)c2o1 (stereo not shown) [Compound 4-34] | 5 | 5 | 5 | 5 | – | – | – | – | – | – | 5 | 5 | 5 | 2 | 5 | 5 | 5 | 5 | 5 | 5 | Herbicidal effects Ec (barnyardgrass (Ec) [10]; [25]): 5; Herbicidal effects Ci (rice flatsedge (Ci) [11]; [25]): 5; Herbicidal effects Am (slender amaranth (Am) [12]; [25]): 5; Herbicidal effects Di (Diaitaria ciliaris (Di); [25]): 5; Herbicidal effects Ch [13, 25]: 5; Herbicidal effects Po (pale smartweed (Po) [14]; [25]): 5
COC(C)c1cc2c(-c3ccc(C(F)(F)F)n(C)c3=O)c(F)cc(Cl)c2o1 (stereo not shown) [Compound 4-35] | 5 | 5 | 5 | 5 | – | – | – | – | – | – | – | – | – | 2 | 5 | 5 | 5 | 5 | 5 | 5 | Herbicidal effects Ec (barnyardgrass (Ec) [10]; [25]): 5; Herbicidal effects Ci (rice flatsedge (Ci) [11]; [25]): 5; Herbicidal effects Am (slender amaranth (Am) [12]; [25]): 5; Herbicidal effects Di (Diaitaria ciliaris (Di); [25]): 5; Herbicidal effects Ch [13, 25]: 5; Herbicidal effects Po (pale smartweed (Po) [14]; [25]): 5
CCOC(C)c1cc2c(-c3ccc(C(F)(F)F)n(C)c3=O)c(F)cc(Cl)c2o1 (stereo not shown) [Compound 4-36] | 5 | 5 | 5 | 5 | – | – | – | – | – | – | – | – | – | 2 | 5 | 5 | 5 | 5 | 5 | 5 | Herbicidal effects Ec (barnyardgrass (Ec) [10]; [25]): 5; Herbicidal effects Ci (rice flatsedge (Ci) [11]; [25]): 5; Herbicidal effects Am (slender amaranth (Am) [12]; [25]): 5; Herbicidal effects Di (Diaitaria ciliaris (Di); [25]): 5; Herbicidal effects Ch [13, 25]: 5; Herbicidal effects Po (pale smartweed (Po) [14]; [25]): 5
CCC(OC)c1cc2c(-c3ccc(C(F)(F)F)n(C)c3=O)c(F)cc(Cl)c2o1 (stereo not shown) [Compound 4-39] | 5 | 5 | 5 | 5 | – | – | – | – | – | – | – | – | – | 2 | – | – | – | – | – | – | –
Cn1c(C(F)(F)F)ccc(-c2cc(C=O)c(Cl)cc2F)c1=O [Compound No. 1-81, 5-[1--methyl-6-trifluoromethyl-2(1H)-pyridon-3-yl]-2-chloro-4-fluorobenzaldehyde] | – | – | – | – | 5 | 5 | 5 | 5 | 5 | 5 | 5 | 5 | 5 | – | – | – | – | – | – | – | Herbicidal effects Ec (barnyardgrass (Ec) [1]; [22]): 5; Herbicidal effects Di (Digitaria ciliaris (Di); [22]): 5; Herbicidal effects Ci (rice flatsedge (Ci) [2]; [22]): 5; Herbicidal effects Am (slender amaranth (Am) [3]; [22]): 5; Herbicidal effects Ch [4, 22]: 5; Herbicidal effects Po (pale smartweed (Po) [5]; [22]): 5
Cn1c(C(F)(F)F)ccc(-c2cc(C(=O)O)c(Cl)cc2F)c1=O [Compound No. 1-141, 5-(1-methyl-6-trifluoromethyl-2(1H)-pyridon-3-yl)-2-chloro-4-fluorobenzoic acid] | – | – | – | – | 5 | 5 | 5 | 5 | 5 | 5 | 5 | 5 | 5 | – | – | – | – | – | – | – | Herbicidal effects Ec (barnyardgrass (Ec) [1]; [22]): 4; Herbicidal effects Di (Digitaria ciliaris (Di); [22]): 5; Herbicidal effects Ci (rice flatsedge (Ci) [2]; [22]): 5; Herbicidal effects Am (slender amaranth (Am) [3]; [22]): 5; Herbicidal effects Ch [4, 22]: 5; Herbicidal effects Po (pale smartweed (Po) [5]; [22]): 5
